Laboratory results from patent US20250040554A1, “NEW USES OF PHENMEDIPHAM AND HERBICIDAL COMBINATIONS COMPRISING PHENMEDIPHAM” (BAYER AKTIENGESELLSCHAFT, priority 2021, published 2025).

Tests used:
Assay type in all cases: in vivo
[1] = tested on: ECHCG=Echinochloa crus-galli; test: Greenhouse weed control trial ECHCG; conditions: 25 DAA
Text: (§1) The respective (combinations of) materials were applied to weed plants in the greenhouse or in the field at the respective growth stage indicated hereinafter for the different weed species mentioned below. The respective (combinations of) active ingredients were also applied to corn, cotton and soybean crop plants, and the selectivity (damage) in these crop plants rated (assessed).
(§2) Visual scoring of the damage to the trial plants took place after the time mentioned in the respective Table—indicated in number of Days After Application (DAA). Damage and development of all above-ground parts of the respective plants was recorded. Visual rating was done on a percentage scale in relation to the untreated control (100%=all plants dead; 50%=green plant biomass reduced by 50%, and 0%=no discernible difference=like control plot).
(§3) The trials in the greenhouse were sprayed with an application volume of 300 L/ha with an automated track sprayer. The plots in the field were sprayed with an application volume of 140 L/ha with a hand held spray boom.
(§4) In greenhouse selectivity trials and trials herbicidal activity trials against weed plants were investigated in post-emergence application of the respective material(s).
(§5) Herbicidal activity against different weeds (undesired plants) was calculated as follows.
(§6) wherein • A, B=respective value in percent of active ingredient A at a dose rate of a g/ha, ingredient B at a dose rate of b g/ha • E^C=Expected value according to Colby (S. R. Colby; Weeds 15 (1967), 20-22) in % at a dose rate of a+b, each in g/ha • Δ=Difference (in %) between measured value E and expected value E^C (%) (measured value minus expected value)
(§7) • measured value E is greater than E^C:->synergism (+Δ) • measured value E is equal to E^C:->additive effect • measured value E is smaller than E^C:->antagonism (−Δ)
(§8) The weed control activity of different (combinations of) materials was investigated in greenhouse trials for the following weed species: • STEME=Stellaria media • ECHCG=Echinochloa crus-galli • BROTE=Bromus tectorum
(§9) Phenmedipham amd Mesotrione were applied at varying application rates (Dose Rate) to the weed plant species STEME, ECHCG and BROTE. The results are shown in Tables 2a to 2c as the % control when assessed 25 days after application (25 DAA).
(§10) In all the trials of Table Tables 2a to 2c Mero® (rapeseed oil methyl ester) was added to the respective spray mixture in an amount corresponding to 1 L/ha for PMP, 1 L/ha for MST, and 2 L/ha for mixtures of PMP+MST.

[2] = tested on: AMARE=Amaranthus retroflexus; test: Weed control field trial AMARE; conditions: 15 DAA
Text: as §1, §2, §6
After the harmful plants had emerged, they were treated, at the respective growth stage indicated, with the respective materials as indicated at a water application rate of 187 L/ha.
After the treatment (15 days after the treatment), the herbicidal activity of respective material was scored visually at the same time by comparing the differently treated plots with the untreated control plots. The score figures of the different plots were averaged.
(§11) The dose rates of herbicidal ingredients used in each case are indicated for the respective active ingredient and refer to the amount of active ingredient per hectare (g/ha).
The weed control activity of different (combinations of) herbicidal active ingredients was investigated in field trials for the following weed species: • AMARE=Amaranthus retroflexus • KCHSC=Kochia scoparia • PANRA=Panicum ramosum
The growth stage of AMARE was BBCH 19, the growth stage of KCHSC was BBCH 19 and the growth stage of PANRA was BBCH 22 at the time of application of the respective material.
Phenmedipham and the respective aroylcyclohexanedione herbicide were applied at varying application rates (Dose Rate) to the different species of weed plants. The results are shown in Tables 4a to 4d as the % control when assessed 15 days after application (DAA), respectively.
In all the trials of Tables 4a to 4d Mero® (rapeseed oil methyl ester) was added to the respective spray mixture in an amount corresponding to 1 L/ha for PMP, 1 L/ha for the respective aroylcyclohexanedione herbicide, and 2 L/ha for mixtures of PMP+the respective aroylcyclohexanedione herbicide.

[3] = tested on: STEME=Stellaria media; test: Greenhouse weed control trial STEME; conditions: 25 DAA
Text: as §1, §2, §3, §4, §5, §6, §7, §8, §9, §10

[4] = tested on: BRADC=Brachiaria decumbens; test: Weed control field trial BRADC
Text: as §1, §2, §3, §6
The growth stages of the different weed species are indicated according to the BBCH monograph “Growth stages of mono- and dicotyledonous plants”, 2nd edition, 2001, ed. Uwe Meier, Federal Biological Research Centre for Agriculture and Forestry (Biologische Bundesanstalt für Land und Forstwirtschaft).
After the harmful plants had emerged, they were treated, at the respective growth stage indicated, with the respective materials as indicated at a water application rate of 140 L/ha.
After the treatment (21 or 35 days after application of the respective material), the herbicidal activity of respective material was scored visually at the same time by comparing the differently treated plots with the untreated control plots. The score figures of the different plots were averaged.
as §11
The weed control activity of different (combinations of) herbicidal active ingredients was investigated in field trials for the following weed species: • AMAVI=Amaranthus viridis • IPOAO=Ipomoea aristolochiaefolia • EPHHL=Euphorbia heterophylla • BIDPI=Bidens pilosa • BRADC=Brachiaria decumbens • ELEIN=Eleusine indica • CCHEC=Cenchrus echinatus
The growth stage of AMAVI was BBCH 13, the growth stage of IPOAO was BBCH 15, the growth stage of EPHHL was BBCH 13, the growth stage of BIDPI was BBCH 14, the growth stage of BRADC was BBCH 23, the growth stage of ELEIN was BBCH 11 and the growth stage of CCHEC was BBCH 12 at the time of application of the respective material.
Phenmedipham and Mesotrione were applied at varying application rates (Dose Rate) to the different species of weed plants. The results are shown in Tables 3a to 3e as the % control when assessed 21 and 35 days after application (DAA), respectively.
In all the trials of Tables 3a to 3e Mero® (rapeseed oil methyl ester) was added to the respective spray mixture in an amount corresponding to 1 L/ha for PMP, 1 L/ha for MST, and 2 L/ha for mixtures of PMP+MST.

## COC(=O)Nc1cccc(OC(=O)Nc2cccc(C)c2)c1 [PMP, 3-[(methoxyformyl)amino]phenyl (3-methylphenyl)carbamate]
[1]; 12.5 g/ha
  % control ECHCG: 0%
[1]; 25 g/ha
  % control ECHCG: 0%
[1]; 50 g/ha
  % control ECHCG: 0%
[1]; 75 g/ha
  % control ECHCG: 0%
[1]; 100 g/ha
  % control ECHCG: 0%
[1]; 125 g/ha
  % control ECHCG: 0%
[1]; 300 g/ha
  % control ECHCG: 10%
[2]; 150 g/ha
  % control AMARE: 0%
[2]; 300 g/ha
  % control AMARE: 5%
[3]; 12.5 g/ha
  % control STEME: 0%
[3]; 25 g/ha
  % control STEME: 0%
[3]; 50 g/ha
  % control STEME: 0%
[3]; 75 g/ha
  % control STEME: 0%
[3]; 100 g/ha
  % control STEME: 0%
[3]; 125 g/ha
  % control STEME: 25%
[3]; 300 g/ha
  % control STEME: 77%
[4]; 75 g/ha, 21 DAA
  % control BRADC: 0%
[4]; 75 g/ha, 35 DAA
  % control BRADC: 0%
[4]; 100 g/ha, 21 DAA
  % control BRADC: 0%
[4]; 100 g/ha, 35 DAA
  % control BRADC: 0%
[4]; 125 g/ha, 21 DAA
  % control BRADC: 0%
[4]; 125 g/ha, 35 DAA
  % control BRADC: 0%
[4]; 250 g/ha, 21 DAA
  % control BRADC: 0%
[4]; 250 g/ha, 35 DAA
  % control BRADC: 0%

## CS(=O)(=O)c1ccc(C(=O)C2C(=O)CCCC2=O)c([N+](=O)[O-])c1 [MST, 2-[4-(methylsulfonyl)-2-nitrobenzoyl]cyclohexane-1,3-dione]
[1]; 12.5 g/ha
  % control ECHCG: 15%
[1]; 25 g/ha
  % control ECHCG: 28%
[1]; 50 g/ha
  % control ECHCG: 70%
[1]; 75 g/ha
  % control ECHCG: 70%
[2]; 20 g/ha
  % control AMARE: 25%
[2]; 40 g/ha
  % control AMARE: 30%
[2]; 60 g/ha
  % control AMARE: 40%
[2]; 80 g/ha
  % control AMARE: 45%
[2]; 100 g/ha
  % control AMARE: 50%
[3]; 12.5 g/ha
  % control STEME: 89%
[3]; 25 g/ha
  % control STEME: 99%
[3]; 50 g/ha
  % control STEME: 99%
[3]; 75 g/ha
  % control STEME: 99%
[4]; 25 g/ha, 21 DAA
  % control BRADC: 0%
[4]; 25 g/ha, 35 DAA
  % control BRADC: 0%
[4]; 50 g/ha, 21 DAA
  % control BRADC: 17%
[4]; 50 g/ha, 35 DAA
  % control BRADC: 13%
